Assay results from patent US20150183822A1, “ANGIOTENSIN-CONVERTING-ENZYME INHIBITING DIPEPTIDE” (YAMAKI Co., Ltd., priority 2012, published 2015).
Read-outs that look alike come from different tables or passages of the source. Where a SMILES comes first, the peptide text is derived from it.

Target: T1, angiotensin converting enzyme (ACE) (Oryctolagus cuniculus, UniProt P12822)
T1 construct: resulting supernatant was purified with hydroxyapatite to obtain 1 unit/mg protein of angiotensin converting enzyme liquid; tissue Sigma Co., Ltd. (alternative source); host or cells: rabbit lung (acetone powder extract purified with hydroxyapatite)
T1 sequence (P12822 34-1310): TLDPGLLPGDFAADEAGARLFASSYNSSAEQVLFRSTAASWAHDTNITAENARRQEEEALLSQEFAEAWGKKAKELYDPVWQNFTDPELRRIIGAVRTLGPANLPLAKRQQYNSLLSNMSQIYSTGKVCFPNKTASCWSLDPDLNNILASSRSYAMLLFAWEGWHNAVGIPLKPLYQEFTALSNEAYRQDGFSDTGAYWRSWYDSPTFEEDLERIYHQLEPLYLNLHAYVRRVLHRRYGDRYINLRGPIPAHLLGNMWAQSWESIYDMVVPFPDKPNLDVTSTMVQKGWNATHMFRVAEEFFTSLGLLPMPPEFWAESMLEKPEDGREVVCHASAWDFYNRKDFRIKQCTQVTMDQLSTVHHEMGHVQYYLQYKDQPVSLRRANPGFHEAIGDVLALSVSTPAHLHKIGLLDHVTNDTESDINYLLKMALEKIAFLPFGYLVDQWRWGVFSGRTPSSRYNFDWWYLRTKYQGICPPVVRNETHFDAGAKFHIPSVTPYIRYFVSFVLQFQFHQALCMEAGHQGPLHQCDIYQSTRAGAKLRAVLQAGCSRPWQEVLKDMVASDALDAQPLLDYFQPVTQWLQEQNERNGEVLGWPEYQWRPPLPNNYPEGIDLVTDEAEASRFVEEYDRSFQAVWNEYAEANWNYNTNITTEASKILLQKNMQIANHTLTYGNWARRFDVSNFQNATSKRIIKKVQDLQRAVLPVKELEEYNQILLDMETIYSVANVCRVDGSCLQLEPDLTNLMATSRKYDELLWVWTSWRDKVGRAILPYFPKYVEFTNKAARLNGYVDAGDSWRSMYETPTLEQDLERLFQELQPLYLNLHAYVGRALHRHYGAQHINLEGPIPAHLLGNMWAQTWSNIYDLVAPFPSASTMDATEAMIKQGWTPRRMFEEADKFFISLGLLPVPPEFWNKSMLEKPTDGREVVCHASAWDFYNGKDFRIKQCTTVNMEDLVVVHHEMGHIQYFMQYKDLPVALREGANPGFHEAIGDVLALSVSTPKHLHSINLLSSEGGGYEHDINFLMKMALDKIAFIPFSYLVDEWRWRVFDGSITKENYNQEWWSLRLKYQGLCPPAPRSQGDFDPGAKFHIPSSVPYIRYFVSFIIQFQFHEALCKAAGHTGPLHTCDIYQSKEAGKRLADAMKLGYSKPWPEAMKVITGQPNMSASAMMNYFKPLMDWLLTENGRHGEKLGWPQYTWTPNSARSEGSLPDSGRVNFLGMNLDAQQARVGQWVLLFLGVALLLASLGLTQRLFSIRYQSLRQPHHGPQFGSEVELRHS
Experiment: ACE inhibitory activity (Test Example 1, Cheung and Cushman's method, hippuryl histidyl leucine substrate)
Format: biochemical, rabbit
Conditions: for The contribution rate in KATSUOBUSHI peptide: contribution of each dipeptide in KATSUOBUSHI peptide; for ACE inhibitory activity value, comparison in words: comparison among dipeptides of Table 30
Procedure: ACE inhibitory activity was measured as below.
5 g of rabbit lung acetone powder was dissolved in 50 mL of 0.1M sodium borate buffer (pH8.3), centrifuged under the condition of 40000G and for 40 minutes and resulting supernatant was purified with hydroxyapatite to obtain 1 unit/mg protein of angiotensin converting enzyme liquid. Purified ACE derived from rabbit lung (Sigma Co., Ltd., 0.25 unit), alternatively, was used.
0.030 mL of the various concentrations of the dipeptide composition solutions were taken into test tubes, respectively, and then, 0.1 mL of the angiotensin converting enzyme liquid as above was added into the test tubes to react with the composition at 37° C. for 5 minutes. Subsequently, 0.25 mL of hippuryl histidyl leucine (PEPTIDE Lab., Bz-Gly-His-Leu.H2O, the final concentration of 5 mM, including 300 mM of NaCl) as a substrate was added to the test tubes to react with the enzyme at 37° C. for 30 minutes. 0.25 mL of 1N hydrochloric acid, then, was added to the test tube to terminate the reaction, 1.5 mL of ethyl acetate was added to the test tube and stirred with the vortex mixer for 20 seconds, followed by centrifuging (3000 rotations, for 5 minutes) and 1 mL of ethyl acetate layer was isolated.
The inhibitory rate was calculated according to the following formula.
The inhibitory=[1−(A−a)/(B−b)]×100

[1] = isolated peptides, Table 11, read-out: ACE inhibitory activity (IC50: μM)
[2] = Table 30, dipeptides of the invention and other dipeptides, read-out: ACE inhibitory value IC50
[3] = isolated peptides, Table 10, read-out: ACE inhibitory activity (IC50: μM)
[4] = isolated peptides, Table 9, read-out: ACE inhibitory activity (IC50: μM)

Question: Which results are given for `C[C@H](N)C(=O)N[C@@H](Cc1c[nH]c2ccccc12)C(=O)O` [Alanine-tryptophan, alanine-tryptophan] (H-Ala-Trp-OH; N-terminus and C-terminus assumed)?
Answer: contribution rate in KATSUOBUSHI peptide, in words: high; The contribution rate in KATSUOBUSHI peptide: 0.672%; IC50 [1]: 10 µM

Question: For `NC(=O)C[C@H](N)C(=O)N[C@@H](Cc1c[nH]c2ccccc12)C(=O)O` [Asparagine-tryptophan, asparagine-tryptophan] (H-Asn-Trp-OH; N-terminus and C-terminus assumed), which “The contribution rate in KATSUOBUSHI peptide” value (“The contribution rate” for short) is on record?
Answer: 0.099%

Question: `NC(=O)CC[C@H](N)C(=O)N[C@@H](Cc1c[nH]c2ccccc12)C(=O)O` [Glutamine-tryptophan, glutamine-tryptophan] (H-Gln-Trp-OH; N-terminus and C-terminus assumed) was tested. Which “The contribution rate” value did it give?
Answer: 0.048%

Question: What about the IC50 [1] of the same compound?
Answer: 32.6 µM

Question: With `NCC(=O)N[C@@H](Cc1c[nH]c2ccccc12)C(=O)O` [Glycine-tryptophan, glycine-tryptophan] (H-Gly-Trp-OH) as the compound, how does the “The contribution rate” value read?
Answer: 0.366%

Question: And the IC50 [1]?
Answer: 30 µM

Question: `CC[C@H](C)[C@H](N)C(=O)N[C@@H](Cc1ccccc1)C(=O)O` [Isoleucine-phenylalanine, reference compound] (H-Ile-Phe-OH; N-terminus and C-terminus assumed) was tested. Which IC50 [2] did it give?
Answer: 930 µM

Question: `CC[C@H](C)[C@H](N)C(=O)N[C@@H](Cc1c[nH]c2ccccc12)C(=O)O` [Isoleucine-tryptophan, isoleucine-tryptophan] was tested. Which “contribution rate in KATSUOBUSHI peptide, in words” value did it give?
Answer: high

Question: And the “ACE inhibitory activity value, comparison in words” value (“ACE inhibitory activity value” below)?
Answer: much higher value than the other dipeptides

Question: And the “The contribution rate” value?
Answer: 2.040%

Question: What about the IC50 [3] of the same compound?
Answer: 2 µM

Question: With `CC(C)C[C@H](N)C(=O)N[C@@H](Cc1c[nH]c2ccccc12)C(=O)O` [Leucine-tryptophan, leucine-tryptophan] as the compound, how does the IC50 [4] read?
Answer: 23 µM

Question: Which “ACE inhibitory activity value” value does the source give for `CSCC[C@H](N)C(=O)N[C@@H](Cc1c[nH]c2ccccc12)C(=O)O` [Methionine-tryptophan, methionine-tryptophan] (H-Met-Trp-OH; N-terminus and C-terminus assumed) here?
Answer: much higher value than the other dipeptides

Question: And the “The contribution rate” value?
Answer: 0.343%

Question: And the IC50 [3]?
Answer: 3.8 µM

Question: How did the “The contribution rate” value turn out when `N[C@@H](CO)C(=O)N[C@@H](Cc1c[nH]c2ccccc12)C(=O)O` [Serine-tryptophan, serine-tryptophan] (H-Ser-Trp-OH; N-terminus and C-terminus assumed) was run?
Answer: 0.099%

Question: What about the IC50 [1] of the same compound?
Answer: 22.1 µM

Question: How did the IC50 [4] turn out when `NC(=O)C[C@H](NC(=O)[C@@H](N)Cc1c[nH]c2ccccc12)C(=O)O` [Tryptophan-asparagine, tryptophan-asparagine] (H-Trp-Asn-OH; N-terminus and C-terminus assumed) was run?
Answer: 580 µM

Question: For `CC[C@H](C)[C@H](NC(=O)[C@@H](N)Cc1c[nH]c2ccccc12)C(=O)O` [Tryptophan-isoleucine, tryptophan-isoleucine] (H-Trp-Ile-OH; N-terminus and C-terminus assumed), which IC50 [4] is on record?
Answer: 33.1 µM

Question: How did the IC50 [4] turn out when `CC(C)C[C@H](NC(=O)[C@@H](N)Cc1c[nH]c2ccccc12)C(=O)O` [Tryptophan-leucine, tryptophan-leucine] (H-Trp-Leu-OH; N-terminus and C-terminus assumed) was run?
Answer: 25.1 µM

Question: What does the source list for `CSCC[C@H](NC(=O)[C@@H](N)Cc1c[nH]c2ccccc12)C(=O)O` [Tryptophan-methionine, tryptophan-methionine] (H-Trp-Met-OH)?
Answer: The contribution rate in KATSUOBUSHI peptide: 0.054%; IC50 [3]: 36.5 µM

Question: Which results are given for `N[C@@H](Cc1c[nH]c2ccccc12)C(=O)N[C@@H](Cc1ccc(O)cc1)C(=O)O` [Tryptophan-tyrosine, tryptophan-tyrosine] (H-Trp-Tyr-OH; N-terminus and C-terminus assumed)?
Answer: The contribution rate in KATSUOBUSHI peptide: 0.021%; IC50 [3]: 57 µM

Question: For `CC(C)[C@H](N)C(=O)N1CCC[C@H]1C(=O)O` [Valine-proline, reference compound] (H-Val-Pro-OH), which IC50 [2] is on record?
Answer: 420 µM

Question: For `CC(C)[C@H](N)C(=O)N[C@@H](Cc1c[nH]c2ccccc12)C(=O)O` [Valine-tryptophan, valine-tryptophan] (H-Val-Trp-OH), which “contribution rate in KATSUOBUSHI peptide, in words” value is on record?
Answer: high

Question: What about the “ACE inhibitory activity value” value of the same compound?
Answer: much higher value than the other dipeptides

Question: And the “The contribution rate” value?
Answer: 4.031%

Question: `CC(C)[C@H](N)C(=O)N[C@@H](Cc1ccc(O)cc1)C(=O)O` [Valine-tyrosine, valine-tyrosine] (H-Val-Tyr-OH; N-terminus and C-terminus assumed) was tested. Which IC50 [4] did it give?
Answer: 11 µM
